Assay results reported in US6514957B1, “Method of alleviating the violence and stimulating the appetite of stag in the puberty age of the fall and method of promoting the growth of stag's horn” (priority 2001, dated 2003).
Values joined by “and” are separate entries in the source; they are usually repeats but may differ in a detail not shown here. Identical values can stand only once. “Also recorded” adds a separate entry of the source.

Tests used:
[1] = tested on: stags of elk, violent and anorexia in the puberty age of the fall; experiment: Alleviating the violence and stimulating the appetite of stags in the puberty age of the fall; format: in vivo
Procedure: To 4 stags of elk, each in the weight of 500 kg, which is violent and anorexia in the puberty age of the fall, 17β-decanoate-4-estrene-3-one 500 mg (effective dose corresponding to 1 mg per 1 kg of the weight of stag: “ANABOLIN FORTE” is the trademark manufactured by Alfasan in Nederland and containing 17β-decanoate-4-estrene-3-one 50 mg in a injection product 1 ml; “ANABOLIN FORTE 10 ml” is the trademark imported by BUM-HAN PHARM. in Korea) was intramuscularly-injected.
To 8 stags of elk, each in the weight of 500 kg, which is violent and anorexia in the puberty age of the fall, 17β-decanoate-4-estrene-3-one 50 mg, 100 mg, 250 mg, 500 mg, 750 mg, 1,000 mg, 2,500 mg and 5,000 mg (effective doses corresponding to 0.1 mg, 0.2 mg, 0.5 mg, 1.0 mg, 1.5 mg, 2.0 mg, 5.0 mg and 10 mg per 1 kg of the weight of stag: “ANABOLIN FORTE” is the trademark manufactured by Alfasan in Nederland and containing 17β-decanoate-4-estrene-3-one 50 mg in a injection product 1 ml; “ANABOLIN FORTE 1 ml, 2 ml, 5 ml, 10 ml, 15 ml, 20 ml, 50 ml and 100 ml” is the trademark imported by BUM-HAN PHARM. in Korea) were injected-injected.
Example 6 was the same as Example 1, except that Example 6 substituted 17β-cyclohexylpropionate-4-estrene-3-one for 17β-decanoate-4-estrene-3-one.
Example 7 was the same as Example 2, except that Example 7 substituted 17β-cyclohexylpropionate-4-estrene-3-one for 17β-decanoate-4-estrene-3-one.
Example 10 was the same as Example 2, except that Example 9 substituted a compound of 17β-decanoate-4-estrene-3-one and 17β-cyclohexylpropionate-4-estrene-3-one for 17β-decanoate-4-estrene-3-one.

[2] = tested on: stags of elk of which the first horn was cut in the summer; experiment: Promoting the growth of the second stag's horn after cutting the first horn; format: in vivo; details: for Growth and development progress of the second stag's horn: 500 mg (1 mg/kg) injected Oct. 2, 1999 or Oct. 2, 2000
Procedure: To 4 stags of elk, of which the first horn coming up in the spring and growing cut in the summer, each in the weight of 500 kg, 17β-decanoate-4-estrene-3-one 500 mg (effective dose corresponding to 1 mg per 1 kg of the weight of stag: “ANABOLIN FORTE” is the trademark manufactured by Alfasan in Nederland and containing 17β-decanoate-4-estrene-3-one 50 mg in a injection product 1 ml; “ANABOLIN FORTE 10 ml” is the trademark imported by BUM-HAN PHARM. in Korea) was injected-injected.
To 8 stags of elk, each in the weight of 500 kg, of which the first horn coming up in the spring and grown up cuts in the summer, 17β-decanoate-4-estrene-3-one 50 mg, 100 mg, 250 mg, 500 mg, 750 mg, 1,000 mg, 2,500 mg and 5,000 mg (effective doses corresponding to 0.1 mg, 0.2 mg, 0.5 mg, 1.0 mg, 1.5 mg, 2.0 mg, 5.0 mg and 10 mg per 1 kg of the weight of stag: “ANABOLIN FORTE” is the trademark manufactured by Alfasan in Nederland and containing 17β-decanoate-4-estrene-3-one 50 mg in a injection product 1 ml; “ANABOLIN FORTE 1 ml, 2 ml, 5 ml, 10 ml, 15 ml, 20 ml, 50 ml and 100 ml” is the trademark imported by BUM-HAN PHARM. in Korea) were injected-injected.
Example 8 was the same as Example 3, except that Example 8 substituted 17β-cyclohexylpropionate-4-estrene-3-one for 17β-decanoate-4-estrene-3-one.
Example 9 was the same as Example 5, except that Example 9 substituted 17β-cyclohexylpropionate-4-estrene-3-one for 17β-decanoate-4-estrene-3-one.
Example 11 was the same as Example 3, except that Example 9 substituted a compound of 17β-decanoate-4-estrene-3-one and 17β-cyclohexylpropionate-4-estrene-3-one for 17β-decanoate-4-estrene-3-one.

[3] = Elk 5, 500 kg, dose 50 mg (0.1 mg/kg) injected
[4] = Elk 6, 500 kg, dose 100 mg (0.2 mg/kg) injected
[5] = Elk 7, 500 kg, dose 250 mg (0.5 mg/kg) injected
[6] = Elk 8, 500 kg, dose 500 mg (1.0 mg/kg) injected
[7] = Elk 9, 500 kg, dose 750 mg (1.5 mg/kg) injected
[8] = Elk 10, 500 kg, dose 1,000 mg (2.0 mg/kg) injected
[9] = Elk 11, 500 kg, dose 2,500 mg (5.0 mg/kg) injected
[10] = Elk 12, 500 kg, dose 5,000 mg (10 mg/kg) injected
[11] = elk stags 500 kg, doses 0.1, 0.2, 0.5, 1.0, 1.5, 2.0, 5.0 and 10 mg per kg

C[C@]12CC[C@H]3[C@@H](CCC4=CC(=O)CC[C@@H]43)[C@@H]1CC[C@@H]2OC(=O)CCC1CCCCC1 [17β-cyclohexylpropionate-4-estrene-3-one]
test results (violence, appetite) compared with 17β-decanoate-4-estrene-3-one ([1]; conducted as Example 1: 500 mg (1 mg/kg) intramuscular, elk stags 500 kg): the same as those of Example 1 | test results (violence, appetite) compared with 17β-decanoate-4-estrene-3-one ([1]; conducted as Example 2: 50 to 5,000 mg (0.1 to 10 mg/kg), elk stags 500 kg): the same as those of Example 2 | test results (growth and production amount of the second stag's horn) compared with 17β-decanoate-4-estrene-3-one ([2]; conducted as Example 3: 500 mg (1 mg/kg), elk stags 500 kg): the same as those of Example 3 | test results (production amount of the second stag's horn by dose) compared with 17β-decanoate-4-estrene-3-one ([2]; conducted as Example 5: 50 to 5,000 mg (0.1 to 10 mg/kg), elk stags 500 kg): the same as those of Example 5

CCCCCCCCCC(=O)O[C@H]1CC[C@H]2[C@@H]3CCC4=CC(=O)CC[C@@H]4[C@H]3CC[C@]12C [17β-decanoate-4-estrene-3-one]
Status After: appetite [1, 3]: Stimulating appetite | Status After: violence [1, 3]: Alleviating violence | Status After: appetite [1, 4]: Stimulating appetite | Status After: violence [1, 4]: Alleviating violence | Status After: appetite [1, 5]: Stimulating appetite | Status After: violence [1, 5]: Alleviating violence | Status After: appetite [1, 6]: Stimulating appetite | Status After: violence [1, 6]: Alleviating violence | Status After: appetite [1, 7]: Stimulating appetite | Status After: violence [1, 7]: Alleviating violence | Status After: appetite [1, 8]: Stimulating appetite | Status After: violence [1, 8]: Alleviating violence | Status After: appetite [1, 9]: Stimulating appetite | Status After: violence [1, 9]: Alleviating violence | Status After: appetite [1, 10]: Stimulating appetite | Status After: violence [1, 10]: Alleviating violence | Status After: appetite ([1]; elk stags 500 kg, anorexia before, 500 mg (1 mg/kg) intramuscularly injected 2000.10.2, individual Elk 1-4): stimulated in appetite; also recorded: Stimulating appetite | Status After: violence ([1]; elk stags 500 kg, violent before, 500 mg (1 mg/kg) intramuscularly injected 2000.10.2, individual Elk 1-4): less violent; also recorded: Alleviating violence | intake of feed ([1]; elk stags 500 kg, 1.0 mg/kg intramuscularly injected): increasing the intake of feed | appetite after injection [1, 11]: stimulated in appetite | intake of feed [1, 11]: increasing the intake of feed | violence after injection [1, 11]: less violent | Growth and development progress of the second stag's horn ([2]; 0 days after administration, individual Elk 21, 22 (500 kg)): 0 cm | production amount of the second stag's horn relative to that of the first stag's horn ([2]; 1 mg/kg injected, elk 500 kg): about 80% | time from administration until the second stag's horn comes up ([2]; 1 mg/kg intramuscularly injected, elk 500 kg): 30 days | growth rate of the second stag's horn ([2]; 1 mg/kg intramuscularly injected, elk 500 kg, after the horn came up): 3 cm per a day | Production amount of stag's horn: the second horn collected in the next spring ([2]; 500 mg (1 mg/kg) injected 1999.10.2 or 2000.10.2, individual Elk 21, 22 (500 kg)): 12 kg (2×) and 9.6 kg (2×) | Growth and development progress of the second stag's horn ([2]; 10 days after administration, individual Elk 21, 22 (500 kg)): 0 cm | Growth and development progress of the second stag's horn ([2]; 20 days after administration, individual Elk 21, 22 (500 kg)): 0 cm | Growth and development progress of the second stag's horn ([2]; 30 days after administration, individual Elk 21, 22 (500 kg)): 0.5 cm | Growth and development progress of the second stag's horn ([2]; 40 days after administration, individual Elk 21, 22 (500 kg)): approximately 30 cm and 30 cm | Growth and development progress of the second stag's horn ([2]; 50 days after administration, individual Elk 21, 22 (500 kg)): 40 cm | Growth and development progress of the second stag's horn ([2]; 60 days after administration, individual Elk 21, 22 (500 kg)): 60 cm | Growth and development progress of the second stag's horn ([2]; 70 days after administration, individual Elk 21, 22 (500 kg)): 80 cm | Growth and development progress of the second stag's horn ([2]; 80 days after administration, individual Elk 21, 22 (500 kg)): 90 cm and 100 cm (3×) | Growth and development progress of the second stag's horn ([2]; 90 days after administration, individual Elk 21, 22 (500 kg)): 100 cm and 110 cm (2×) and 120 cm | Growth and development progress of the second stag's horn ([2]; 100 days after administration, individual Elk 21, 22 (500 kg)): 100 cm and 110 cm (2×) and 120 cm | Production amount of stag's horn: the second horn collected in the next spring ([2]; Elk 31, 500 kg, dose 50 mg (0.1 mg/kg), first horn 15 kg): 5 kg | Production amount of stag's horn: the second horn collected in the next spring ([2]; Elk 32, 500 kg, dose 100 mg (0.2 mg/kg), first horn 15 kg): 5 kg | Production amount of stag's horn: the second horn collected in the next spring ([2]; Elk 33, 500 kg, dose 250 mg (0.5 mg/kg), first horn 15 kg): 12 kg | Production amount of stag's horn: the second horn collected in the next spring ([2]; Elk 34, 500 kg, dose 500 mg (1.0 mg/kg), first horn 15 kg): 12 kg | Production amount of stag's horn: the second horn collected in the next spring ([2]; Elk 35, 500 kg, dose 750 mg (1.5 mg/kg), first horn 15 kg): 12 kg | Production amount of stag's horn: the second horn collected in the next spring ([2]; Elk 36, 500 kg, dose 1,000 mg (2.0 mg/kg), first horn 15 kg): 12 kg | Production amount of stag's horn: the second horn collected in the next spring ([2]; Elk 37, 500 kg, dose 2,500 mg (5.0 mg/kg), first horn 15 kg): 5 kg | Production amount of stag's horn: the second horn collected in the next spring ([2]; Elk 38, 500 kg, dose 5,000 mg (10 mg/kg), first horn 15 kg): 5 kg | growth of stag's horn ([2]; elk 500 kg, doses 0.1, 0.2, 0.5, 1.0, 1.5, 2.0, 5.0 and 10 mg per kg): promoted
